Test results taken from patent US20260053811A1, “METHODS OF TREATING HYPERTENSION IN OBESE SUBJECTS” (Mineralys Therapeutics, Inc., priority 2022, published 2026).
Read-outs that look alike come from different tables or passages of the source.

Test: Pharmacokinetics (plasma Cmax, AUC, Tmax, t1/2, trough concentrations)
Assay type: in vivo, human
Details: for Trough Plasma Concentration, Median / concentration at 7 day: Day 7; for concentration at 7 day / concentration at 28 day / concentration at 56 day / AUC(0-t) / Cmax / Tmax: human, plasma, oral; for concentration at 56 day: Day 56; for Tmax: read-out: Tmax, Median
Description: Pharmacokinetic endpoints of this study are PK parameters, including, of area under the plasma concentration versus time curve (AUC), maximum plasma concentration (Cmax), time to maximum concentration (Tmax), and half-life (t1/2) will be summarized descriptively for Randomization (baseline) and Study Weeks 1, 4, and 8
PK/PD Analysis Set includes all subjects in the SAF who have sufficient data available for the analysis of pharmacokinetic and pharmacodynamic measurements. In the analyses based on PKPD, subjects will be analyzed according to the actual treatment received.

[1] = 12.5 mg, 12.5 mg BID, read-out: Trough Plasma Concentration, Mean (SD)
[2] = 12.5 mg, 12.5 mg QD, read-out: Trough Plasma Concentration, Mean (SD)
[3] = 25 mg, 25 mg BID, read-out: Trough Plasma Concentration, Mean (SD)
[4] = 50 mg, 50 mg QD, read-out: Trough Plasma Concentration, Mean (SD)
[5] = 100 mg, 100 mg QD Part 1, read-out: Trough Plasma Concentration, Mean (SD)
[6] = 100 mg, 100 mg QD Part 1, read-out: Trough Plasma Concentration, Median
[7] = 100 mg, 100 mg QD Part 2, read-out: Trough Plasma Concentration, Mean (SD)
[8] = 100 mg, 100 mg QD Part 2, read-out: Trough Plasma Concentration, Median
[9] = steady state Day 28, 12.5 mg BID

SMILES: CC(=O)N[C@H]1CC[C@H](NC(=O)CN2CCN(c3nncc(-c4ccc(C)cc4)n3)CC2)CC1 [Compound A HBr]
- Trough Plasma Concentration, Median (12.5 mg BID): 26.1 ng/mL
- Trough Plasma Concentration, Median (12.5 mg QD): 5.52 ng/mL
- Trough Plasma Concentration, Median (25 mg BID): 52 ng/mL
- Trough Plasma Concentration, Median (50 mg QD): 12.1 ng/mL
- concentration at 7 day [1]: 52.3 ng/mL
- concentration at 7 day [2]: 11.6 ng/mL
- concentration at 28 day (12.5 mg, Day 28, 12.5 mg BID, read-out: Trough Plasma Concentration, Geo Mean): 10.7 ng/mL
- concentration at 28 day (12.5 mg, Day 28, 12.5 mg BID, read-out: Trough Plasma Concentration, Mean (SD)): 33.4 ng/mL
- concentration at 28 day (12.5 mg, Day 28, 12.5 mg BID, read-out: Trough Plasma Concentration, Median): 27.3 ng/mL
- concentration at 28 day (12.5 mg, Day 28, 12.5 mg QD, read-out: Trough Plasma Concentration, Geo Mean): 5.77 ng/mL
- concentration at 28 day (12.5 mg, Day 28, 12.5 mg QD, read-out: Trough Plasma Concentration, Mean (SD)): 7.91 ng/mL
- concentration at 28 day (12.5 mg, Day 28, 12.5 mg QD, read-out: Trough Plasma Concentration, Median): 4.1 ng/mL
- concentration at 56 day (12.5 mg, 12.5 mg BID, read-out: Trough Plasma Concentration, Geometric Mean): 18.5 ng/mL
- concentration at 56 day [1]: 40.4 ng/mL
- concentration at 56 day (12.5 mg, 12.5 mg BID, read-out: Trough Plasma Concentration, Median): 21.6 ng/mL
- concentration at 56 day (12.5 mg, 12.5 mg QD, read-out: Trough Plasma Concentration, Geometric Mean): 22.1 ng/mL
- concentration at 56 day [2]: 39.9 ng/mL
- concentration at 56 day (12.5 mg, 12.5 mg QD, read-out: Trough Plasma Concentration, Median): 7.6 ng/mL
- AUC(0-t) (12.5 mg, steady state Day 28, 12.5 mg BID, read-out: AUC0-24, Geo Mean): 940 ng·h/mL
- AUC(0-t) (12.5 mg, steady state Day 28, 12.5 mg BID, read-out: AUC0-24, Mean (SD)): 992 ng·h/mL
- AUC(0-t) (12.5 mg, steady state Day 28, 12.5 mg BID, read-out: AUC0-24, Median): 922 ng·h/mL
- Cmax (12.5 mg, steady state Day 28, 12.5 mg BID, read-out: Cmax, Median): 137 ng/mL
- AUC(0-t) (12.5 mg, steady state Day 28, 12.5 mg QD, read-out: AUC0-24, Geo Mean): 726 ng·h/mL
- AUC(0-t) (12.5 mg, steady state Day 28, 12.5 mg QD, read-out: AUC0-24, Mean (SD)): 1020 ng·h/mL
- AUC(0-t) (12.5 mg, steady state Day 28, 12.5 mg QD, read-out: AUC0-24, Median): 498 ng·h/mL
- Cmax (12.5 mg, steady state Day 28, 12.5 mg QD, read-out: Cmax, Geo Mean): 120 ng/mL
- Cmax (12.5 mg, steady state Day 28, 12.5 mg QD, read-out: Cmax, Mean (SD)): 153 ng/mL
- Cmax (12.5 mg, steady state Day 28, 12.5 mg QD, read-out: Cmax, Median): 94.9 ng/mL
- concentration at 7 day [3]: 94.2 ng/mL
- concentration at 28 day (25 mg, Day 28, 25 mg BID, read-out: Trough Plasma Concentration, Geo Mean): 62.1 ng/mL
- concentration at 28 day (25 mg, Day 28, 25 mg BID, read-out: Trough Plasma Concentration, Mean (SD)): 109 ng/mL
- concentration at 28 day (25 mg, Day 28, 25 mg BID, read-out: Trough Plasma Concentration, Median): 56.3 ng/mL
- concentration at 56 day (25 mg, 25 mg BID, read-out: Trough Plasma Concentration, Geometric Mean): 46 ng/mL
- concentration at 56 day [3]: 104 ng/mL
- concentration at 56 day (25 mg, 25 mg BID, read-out: Trough Plasma Concentration, Median): 32.3 ng/mL
- AUC(0-t) (25 mg, steady state Day 28, 25 mg BID, read-out: AUC0-24, Geo Mean): 1640 ng·h/mL
- AUC(0-t) (25 mg, steady state Day 28, 25 mg BID, read-out: AUC0-24, Mean (SD)): 1760 ng·h/mL
- AUC(0-t) (25 mg, steady state Day 28, 25 mg BID, read-out: AUC0-24, Median): 1670 ng·h/mL
- Cmax (25 mg, steady state Day 28, 25 mg BID, read-out: Cmax, Geo Mean): 325 ng/mL
- Cmax (25 mg, steady state Day 28, 25 mg BID, read-out: Cmax, Median): 335 ng/mL
- concentration at 7 day [4]: 93.1 ng/mL
- concentration at 28 day (50 mg, Day 28, 50 mg QD, read-out: Trough Plasma Concentration, Geo Mean): 46.8 ng/mL
- concentration at 28 day (50 mg, Day 28, 50 mg QD, read-out: Trough Plasma Concentration, Mean (SD)): 87.4 ng/mL
- concentration at 28 day (50 mg, Day 28, 50 mg QD, read-out: Trough Plasma Concentration, Median): 20.9 ng/mL
- concentration at 56 day (50 mg, 50 mg QD, read-out: Trough Plasma Concentration, Geometric Mean): 38.1 ng/mL
- concentration at 56 day [4]: 155 ng/mL
- concentration at 56 day (50 mg, 50 mg QD, read-out: Trough Plasma Concentration, Median): 18 ng/mL
- AUC(0-t) (50 mg, steady state Day 28, 50 mg QD, read-out: AUC0-24, Geo Mean): 3230 ng·h/mL
- AUC(0-t) (50 mg, steady state Day 28, 50 mg QD, read-out: AUC0-24, Mean (SD)): 3390 ng·h/mL
- AUC(0-t) (50 mg, steady state Day 28, 50 mg QD, read-out: AUC0-24, Median): 3320 ng·h/mL
- Cmax (50 mg, steady state Day 28, 50 mg QD, read-out: Cmax, Geo Mean): 477 ng/mL
- Cmax (50 mg, steady state Day 28, 50 mg QD, read-out: Cmax, Mean (SD)): 518 ng/mL
- Cmax (50 mg, steady state Day 28, 50 mg QD, read-out: Cmax, Median): 488 ng/mL
- AUC(0-t) (100 mg, 100 mg QD, Cohort 1, Day 28, read-out: Steady-state AUC0-24): 14900 ng·h/mL
- Cmax (100 mg, 100 mg QD, Cohort 1, Day 28, read-out: Steady-state Cmax): 1620 ng/mL
- AUC(0-t) (100 mg, 100 mg QD, Cohort 2, Day 28, read-out: Steady-state AUC0-24): 7480 ng·h/mL
- Cmax (100 mg, 100 mg QD, Cohort 2, Day 28, read-out: Steady-state Cmax): 1360 ng/mL
- AUC(0-t) (100 mg, 100 mg QD, Day 28, read-out: Steady-state AUC0-24, mean of Cohort 1 and Cohort 2): ~11200 ng·h/mL
- Cmax (100 mg, 100 mg QD, Day 28, read-out: Steady-state Cmax, mean of Cohort 1 and Cohort 2): ~1490 ng/mL
- concentration at 7 day [5]: 299 ng/mL
- concentration at 7 day [6]: 28.2 ng/mL
- concentration at 7 day [7]: 151 ng/mL
- concentration at 7 day [8]: 29.8 ng/mL
- concentration at 28 day (100 mg, Day 28, 100 mg QD Part 1, read-out: Trough Plasma Concentration, Geo Mean): 50.7 ng/mL
- concentration at 28 day (100 mg, Day 28, 100 mg QD Part 1, read-out: Trough Plasma Concentration, Mean (SD)): 303 ng/mL
- concentration at 28 day (100 mg, Day 28, 100 mg QD Part 1, read-out: Trough Plasma Concentration, Median): 38.6 ng/mL
- concentration at 28 day (100 mg, Day 28, 100 mg QD Part 2, read-out: Trough Plasma Concentration, Geo Mean): 12.9 ng/mL
- concentration at 28 day (100 mg, Day 28, 100 mg QD Part 2, read-out: Trough Plasma Concentration, Mean (SD)): 26.4 ng/mL
- concentration at 28 day (100 mg, Day 28, 100 mg QD Part 2, read-out: Trough Plasma Concentration, Median): 19.9 ng/mL
- concentration at 56 day (100 mg, 100 mg QD Part 1, read-out: Trough Plasma Concentration, Geometric Mean): 72.1 ng/mL
- concentration at 56 day [5]: 258 ng/mL
- concentration at 56 day [6]: 30.4 ng/mL
- concentration at 56 day (100 mg, 100 mg QD Part 2, read-out: Trough Plasma Concentration, Geometric Mean): 20.3 ng/mL
- concentration at 56 day [7]: 23.2 ng/mL
- concentration at 56 day [8]: 20 ng/mL
- AUC(0-t) (100 mg, steady state Day 28, 100 mg QD Part 1, read-out: AUC0-24, Geo Mean): 10400 ng·h/mL
- AUC(0-t) (100 mg, steady state Day 28, 100 mg QD Part 1, read-out: AUC0-24, Mean (SD)): 14900 ng·h/mL
- AUC(0-t) (100 mg, steady state Day 28, 100 mg QD Part 1, read-out: AUC0-24, Median): 15000 ng·h/mL
- Cmax (100 mg, steady state Day 28, 100 mg QD Part 1, read-out: Cmax, Geo Mean): 1370 ng/mL
- Cmax (100 mg, steady state Day 28, 100 mg QD Part 1, read-out: Cmax, Mean (SD)): 1620 ng/mL
- Cmax (100 mg, steady state Day 28, 100 mg QD Part 1, read-out: Cmax, Median): 1590 ng/mL
- AUC(0-t) (100 mg, steady state Day 28, 100 mg QD Part 2, read-out: AUC0-24, Geo Mean): 6920 ng·h/mL
- AUC(0-t) (100 mg, steady state Day 28, 100 mg QD Part 2, read-out: AUC0-24, Mean (SD)): 7480 ng·h/mL
- AUC(0-t) (100 mg, steady state Day 28, 100 mg QD Part 2, read-out: AUC0-24, Median): 7090 ng·h/mL
- Cmax (100 mg, steady state Day 28, 100 mg QD Part 2, read-out: Cmax, Geo Mean): 1000 ng/mL
- Cmax (100 mg, steady state Day 28, 100 mg QD Part 2, read-out: Cmax, Mean (SD)): 1360 ng/mL
- Cmax (100 mg, steady state Day 28, 100 mg QD Part 2, read-out: Cmax, Median): 1250 ng/mL
- Tmax (steady state Day 28, 12.5 mg QD): 1.08 h
- Tmax (steady state Day 28, 50 mg QD): 2.01 h
- Cmax, Geo Mean [9]: 140 ng/mL
- Cmax, Mean (SD) [9]: 142 (28.3) ng/ml
- Cmax, Mean (SD) (steady state Day 28, 25 mg BID): 361 (175) ng/ml
- Tmax, Median (steady state Day 28, 100 mg QD Part 1): 1.02 h
- Tmax, Median (steady state Day 28, 100 mg QD Part 2): 1 h
